Values quoted from earlier work as cited in paper PMC7606817 (Journal of controlled release : official journal of the …, 2020).

Conditions: mice

[C-]#[O+] [CO, Carbon monoxide]
CO elimination half-life: 20 min
